# Measured values published in patent US8933129B2, “Compounds and methods for modulating activity of calcium release channels” (State of Oregon by and through the State Board of Higher …, priority 2009, dated 2015).
# Like-named read-outs stand apart in the source and are kept apart here.
# Legend:
# [1] = tested on: Langendorff perfused rabbit hearts; test: arrhythmia induced by dofetilide in Langendorff perfused rabbit hearts; type: in vivo; conditions: with dofetilide 0.5 μM
# Procedure: (§1) FIG. 12A plots the transmembrane potential (Vm) and intracellular calcium level (Cai) over a 3-second period five minutes after administration of dofetilide (0.5 μM). FIG. 12B plots the transmembrane potential (Vm) and intracellular calcium level (Cai) over a 3-second period ten minutes after administration of dofetilide (0.5 μM).
# (§2) EADs are triggered by spontaneous SR Ca^2+ release and increase in severity or frequency leading to TdP after a few minutes.
# [2] = molecular target: T1, skeletal muscle CRC (skeletal muscle ryanodine receptor RyR1) (Oryctolagus cuniculus, UniProt P11716); test: single channel activity (open probability) of skeletal muscle Ca2+ release channel reconstituted in planar lipid bilayer; type: biochemical, rabbit (New Zealand White); conditions: sub-micromolar 4-MmC; FIG. 5
# T1 construct: heavy sarcoplasmic reticulum vesicles from fast twitch skeletal muscle fused to planar lipid bilayer; single channel recording
# Procedure: Fast twitch skeletal muscle sarcoplasmic reticulum was isolated from New Zealand White rabbit, a rich source of skeletal receptors. Following isolation of a crude fraction, the SR was placed on a discontinuous sucrose gradient and a heavy fraction (HSR) was used for all single channel experiments. Ca^2+ release channel reconstitution into a bilayer membrane was carried out by the addition of SR vesicles to the cis side of a planar bilayer lipid membrane. Bilayers, made with a 5:3:2 mixture of phosphatidylethanolamine:phosphatidylserine:phosphatidylcholine (Avanti Polar Lipids) at 50 mg/ml in decane, were formed across a 150 μm hole drilled in a polystyrene cup separating two chambers of 0.7 ml each. The cis chamber contained 400 mM cesium methane sulfonate (CsMS), 50 μM CaCl2, 25 mM HEPES, pH 7.4, while the trans side contained 40 mM CsMS, 25 mM HEPES pH 7.4. SR vesicles, suspended in 0.4-0.6 M sucrose, 400 mM CsMS were added to the cis chamber at a final concentration of 5-20 μg/ml. […] Channel activity was then measured at a holding potential of +25 mV with respect to the trans (ground) side. […] The data were interfaced through a Digidata 1322A 16 bit data Acquisition System (Axon Instruments), stored filtered at 1 kHz and analyzed for single channel activity using pCLAMP software package (version 9.0, Axon Instruments, Burlingame, Calif.).
# [3] = molecular target: T2, RyR1 (skeletal muscle CRC) (Oryctolagus cuniculus, UniProt P11716); test: Single Ca2+ channel analysis: open probability of skeletal muscle CRC reconstituted in planar bilayer; type: biochemical, rabbit
# T2 construct: from tissue; host or cells: fast twitch skeletal muscle of New Zealand White rabbit, heavy sarcoplasmic reticulum fraction
# T2 sequence (P11716 whole entry): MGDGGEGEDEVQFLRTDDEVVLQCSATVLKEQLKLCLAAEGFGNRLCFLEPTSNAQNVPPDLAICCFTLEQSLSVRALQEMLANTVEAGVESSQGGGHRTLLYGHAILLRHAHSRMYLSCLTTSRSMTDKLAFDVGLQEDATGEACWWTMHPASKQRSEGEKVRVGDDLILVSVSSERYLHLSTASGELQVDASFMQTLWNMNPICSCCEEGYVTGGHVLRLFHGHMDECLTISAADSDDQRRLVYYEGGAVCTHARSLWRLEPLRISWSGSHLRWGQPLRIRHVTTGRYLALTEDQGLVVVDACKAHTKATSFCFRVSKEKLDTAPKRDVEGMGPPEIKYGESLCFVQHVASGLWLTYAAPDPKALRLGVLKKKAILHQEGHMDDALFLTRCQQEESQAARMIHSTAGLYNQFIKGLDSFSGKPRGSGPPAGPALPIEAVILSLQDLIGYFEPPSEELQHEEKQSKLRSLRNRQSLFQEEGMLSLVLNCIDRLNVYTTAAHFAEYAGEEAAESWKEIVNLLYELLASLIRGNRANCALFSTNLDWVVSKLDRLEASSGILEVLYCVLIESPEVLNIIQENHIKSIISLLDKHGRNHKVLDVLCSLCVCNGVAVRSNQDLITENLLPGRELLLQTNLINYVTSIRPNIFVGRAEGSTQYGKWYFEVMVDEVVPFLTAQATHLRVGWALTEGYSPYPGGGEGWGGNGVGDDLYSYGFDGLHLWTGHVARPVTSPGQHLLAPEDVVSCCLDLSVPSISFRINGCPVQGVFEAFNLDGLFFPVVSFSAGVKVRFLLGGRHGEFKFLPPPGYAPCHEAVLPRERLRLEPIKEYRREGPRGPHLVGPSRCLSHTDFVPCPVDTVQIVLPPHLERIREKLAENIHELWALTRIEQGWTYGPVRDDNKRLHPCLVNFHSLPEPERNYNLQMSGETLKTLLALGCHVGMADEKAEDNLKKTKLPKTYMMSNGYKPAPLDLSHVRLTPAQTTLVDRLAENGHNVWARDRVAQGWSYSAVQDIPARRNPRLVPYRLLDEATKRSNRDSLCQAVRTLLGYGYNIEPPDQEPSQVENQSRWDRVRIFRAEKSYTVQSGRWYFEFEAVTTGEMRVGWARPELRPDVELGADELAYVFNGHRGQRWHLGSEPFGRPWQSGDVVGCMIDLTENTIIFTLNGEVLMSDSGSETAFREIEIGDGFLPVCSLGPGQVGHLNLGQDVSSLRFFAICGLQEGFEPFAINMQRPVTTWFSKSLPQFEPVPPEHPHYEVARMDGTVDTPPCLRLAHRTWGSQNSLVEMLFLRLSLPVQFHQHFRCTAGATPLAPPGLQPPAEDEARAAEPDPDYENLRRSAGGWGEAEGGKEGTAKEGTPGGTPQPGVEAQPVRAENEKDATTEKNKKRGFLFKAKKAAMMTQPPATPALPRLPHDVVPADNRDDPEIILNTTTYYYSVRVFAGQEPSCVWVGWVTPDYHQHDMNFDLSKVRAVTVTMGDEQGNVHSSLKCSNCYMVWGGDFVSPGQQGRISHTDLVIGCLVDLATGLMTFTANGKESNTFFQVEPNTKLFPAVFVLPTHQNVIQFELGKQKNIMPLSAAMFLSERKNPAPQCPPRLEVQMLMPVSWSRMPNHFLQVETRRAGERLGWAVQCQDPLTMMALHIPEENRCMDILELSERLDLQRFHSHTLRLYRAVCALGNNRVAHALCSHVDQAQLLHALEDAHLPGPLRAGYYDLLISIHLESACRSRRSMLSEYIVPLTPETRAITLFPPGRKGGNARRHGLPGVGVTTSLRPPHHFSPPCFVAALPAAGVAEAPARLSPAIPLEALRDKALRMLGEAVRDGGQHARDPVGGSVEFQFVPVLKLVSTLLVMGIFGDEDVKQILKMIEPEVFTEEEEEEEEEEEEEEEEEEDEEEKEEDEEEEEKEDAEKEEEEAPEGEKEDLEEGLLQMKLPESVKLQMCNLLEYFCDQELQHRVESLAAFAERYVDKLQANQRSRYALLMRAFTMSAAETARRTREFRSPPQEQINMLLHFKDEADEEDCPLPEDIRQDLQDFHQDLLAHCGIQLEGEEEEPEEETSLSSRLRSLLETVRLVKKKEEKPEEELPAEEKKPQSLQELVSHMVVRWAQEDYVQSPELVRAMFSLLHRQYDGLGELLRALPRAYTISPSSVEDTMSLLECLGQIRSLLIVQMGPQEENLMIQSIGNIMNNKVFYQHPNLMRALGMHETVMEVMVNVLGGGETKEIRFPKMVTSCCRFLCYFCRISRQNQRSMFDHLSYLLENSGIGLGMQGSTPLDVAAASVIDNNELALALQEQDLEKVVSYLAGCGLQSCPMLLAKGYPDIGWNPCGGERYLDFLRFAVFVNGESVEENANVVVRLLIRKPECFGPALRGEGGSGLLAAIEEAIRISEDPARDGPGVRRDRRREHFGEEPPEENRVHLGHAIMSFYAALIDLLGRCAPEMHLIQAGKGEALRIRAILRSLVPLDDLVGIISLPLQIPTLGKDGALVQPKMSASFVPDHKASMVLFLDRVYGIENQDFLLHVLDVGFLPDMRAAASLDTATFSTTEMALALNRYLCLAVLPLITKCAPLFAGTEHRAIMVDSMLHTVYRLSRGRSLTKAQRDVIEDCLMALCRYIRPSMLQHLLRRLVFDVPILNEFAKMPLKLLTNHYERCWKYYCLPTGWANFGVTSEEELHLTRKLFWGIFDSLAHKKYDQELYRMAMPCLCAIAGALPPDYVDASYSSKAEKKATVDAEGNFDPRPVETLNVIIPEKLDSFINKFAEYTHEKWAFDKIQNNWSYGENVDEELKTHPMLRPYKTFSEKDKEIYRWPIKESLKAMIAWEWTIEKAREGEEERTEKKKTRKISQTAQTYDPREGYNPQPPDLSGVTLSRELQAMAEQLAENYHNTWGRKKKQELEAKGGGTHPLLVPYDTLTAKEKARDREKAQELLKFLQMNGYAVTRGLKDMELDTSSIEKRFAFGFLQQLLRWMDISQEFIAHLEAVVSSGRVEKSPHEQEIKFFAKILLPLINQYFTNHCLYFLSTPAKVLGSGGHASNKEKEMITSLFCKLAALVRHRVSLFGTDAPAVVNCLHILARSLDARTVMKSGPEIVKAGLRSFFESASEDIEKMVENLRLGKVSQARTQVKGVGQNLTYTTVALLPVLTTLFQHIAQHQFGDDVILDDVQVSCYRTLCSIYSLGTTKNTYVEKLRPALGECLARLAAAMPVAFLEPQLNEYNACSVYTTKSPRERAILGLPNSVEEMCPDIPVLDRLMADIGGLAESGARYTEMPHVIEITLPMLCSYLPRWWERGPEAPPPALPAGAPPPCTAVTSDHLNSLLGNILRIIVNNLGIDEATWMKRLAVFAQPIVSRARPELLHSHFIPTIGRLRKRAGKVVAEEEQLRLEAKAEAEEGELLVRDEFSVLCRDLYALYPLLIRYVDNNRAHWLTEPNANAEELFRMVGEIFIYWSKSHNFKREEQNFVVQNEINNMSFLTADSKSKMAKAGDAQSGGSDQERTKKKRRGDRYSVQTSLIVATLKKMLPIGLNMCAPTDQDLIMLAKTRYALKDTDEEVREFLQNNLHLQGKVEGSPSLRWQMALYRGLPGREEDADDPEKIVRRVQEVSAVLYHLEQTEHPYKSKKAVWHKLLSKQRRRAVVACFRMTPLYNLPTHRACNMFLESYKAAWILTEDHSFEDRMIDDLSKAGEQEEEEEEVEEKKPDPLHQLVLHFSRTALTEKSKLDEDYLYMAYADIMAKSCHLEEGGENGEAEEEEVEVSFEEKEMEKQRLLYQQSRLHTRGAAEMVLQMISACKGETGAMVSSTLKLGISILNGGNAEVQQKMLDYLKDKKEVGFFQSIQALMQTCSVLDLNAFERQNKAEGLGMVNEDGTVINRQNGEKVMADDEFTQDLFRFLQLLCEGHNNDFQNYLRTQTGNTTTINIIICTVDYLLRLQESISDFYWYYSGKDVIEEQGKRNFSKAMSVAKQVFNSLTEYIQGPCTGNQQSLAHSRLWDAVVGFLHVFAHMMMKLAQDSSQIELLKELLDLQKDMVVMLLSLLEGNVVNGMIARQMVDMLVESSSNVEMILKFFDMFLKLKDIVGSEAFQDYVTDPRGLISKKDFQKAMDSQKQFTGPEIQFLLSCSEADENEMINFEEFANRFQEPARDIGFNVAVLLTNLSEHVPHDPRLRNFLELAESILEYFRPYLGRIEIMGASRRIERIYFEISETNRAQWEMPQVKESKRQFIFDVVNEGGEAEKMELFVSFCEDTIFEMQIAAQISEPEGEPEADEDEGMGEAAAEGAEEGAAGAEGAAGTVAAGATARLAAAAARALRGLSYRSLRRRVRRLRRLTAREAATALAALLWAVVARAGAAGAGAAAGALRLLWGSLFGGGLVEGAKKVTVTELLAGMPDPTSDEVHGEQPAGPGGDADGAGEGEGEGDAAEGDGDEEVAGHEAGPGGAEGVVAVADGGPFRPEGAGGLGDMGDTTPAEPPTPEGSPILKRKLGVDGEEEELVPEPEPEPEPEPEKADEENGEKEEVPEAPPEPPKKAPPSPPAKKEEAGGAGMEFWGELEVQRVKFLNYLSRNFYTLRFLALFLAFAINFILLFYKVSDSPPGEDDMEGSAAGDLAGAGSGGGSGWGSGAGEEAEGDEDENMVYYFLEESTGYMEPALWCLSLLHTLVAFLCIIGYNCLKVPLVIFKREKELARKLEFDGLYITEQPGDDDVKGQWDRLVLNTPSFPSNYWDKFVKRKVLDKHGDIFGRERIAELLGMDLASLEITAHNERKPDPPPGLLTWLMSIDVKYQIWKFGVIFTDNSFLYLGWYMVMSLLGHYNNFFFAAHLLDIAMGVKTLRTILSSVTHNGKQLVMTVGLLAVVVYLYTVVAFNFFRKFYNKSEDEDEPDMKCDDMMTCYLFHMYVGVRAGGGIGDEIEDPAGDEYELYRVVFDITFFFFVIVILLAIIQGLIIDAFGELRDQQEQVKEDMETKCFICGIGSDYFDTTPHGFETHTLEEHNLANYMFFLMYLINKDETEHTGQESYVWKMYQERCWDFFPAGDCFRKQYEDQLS
# T2 sequence (P62943 2-108 partner limits assumed): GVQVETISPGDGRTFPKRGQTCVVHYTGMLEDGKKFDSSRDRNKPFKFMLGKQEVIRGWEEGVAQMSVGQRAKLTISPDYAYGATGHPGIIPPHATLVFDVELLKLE
# Procedure: Fast twitch skeletal muscle sarcoplasmic reticulum was isolated from New Zealand White rabbit, a rich source of skeletal receptors. Following isolation of a crude fraction, the SR was placed on a discontinuous sucrose gradient and a heavy fraction (HSR) was used for all single channel experiments. Ca^2+ release channel reconstitution into a bilayer membrane was carried out by the addition of SR vesicles to the cis side of a planar bilayer lipid membrane. Bilayers, made with a 5:3:2 mixture of phosphatidylethanolamine:phosphatidylserine:phosphatidylcholine (Avanti Polar Lipids) at 50 mg/ml in decane, were formed across a 150 μm hole drilled in a polystyrene cup separating two chambers of 0.7 ml each. […] SR vesicles, suspended in 0.4-0.6 M sucrose, 400 mM CsMS were added to the cis chamber at a final concentration of 5-20 μg/ml.
# [4] = electron donor activity (XTT reduction); type: physicochemical; conditions: Michaelis-Menten fit, read-out: Kd (concentration at which half maximal electron donor activity is observed)
# Procedure: (§3) A sample buffer containing a compound to be tested and a photo-reactive dye (i.e., 10 μM methylene blue, eosin B or erythrosin B) can be continuously illuminated with white light (e.g., about 10 cm away from a halogen 20 W light source) and its spectral characteristics monitored as a function of time (e.g., using a HP8452A diode array spectrophotometer). This can be performed in the presence of oxygen. In general, oxygen dissolved in the solution may decrease the photochemical activity of the dye. To compensate and to increase the sensitivity of the method, a comparatively high light intensity can be used (e.g., in the range of about 1-3 mW/cm^2).
# (§4) To determine if a compound is an electron acceptor, an electron donor (e.g., NADH or EDTA) can be added to the sample buffer to supply electrons to the photo-excited dye. The electron donor reduces the concentration of the dye cation radical and maintains an increased concentration of the dye anion radical. To test whether a compound is an electron donor, no separate electron donor is necessary. In both cases, a probe can be added (e.g., NBD-Cl or XTT) to react with superoxide and produce a detectable product. The product can be measured, for example, as an increase in absorbance at 470 nm. The difference between the probe absorbance at 470 nm in the presence of the compound to be tested and a control without the compound can be taken as a measure of redox activity of the compound.
# When oxygen is unable to intercept all electrons from the dye anion radical, the dye anion radical may disproportionate and form a colorless compound. This process also may serve as a detectable variable corresponding to the redox activity of the tested compound. A compound with electron-acceptor properties intercepts electrons from dye anion radical and thus slows down the rate of dye photo-bleaching. A compound with electron-donor properties donates electrons to the dye cation radical, thus stabilizing the dye anion radical and increasing the rate of dye photo-bleaching. See also International Publication No. WO 2006/086670. […]
# [5] = tested on: TNF-α female perfused mouse hearts; test: Ca2+ transients in Langendorff perfused mouse heart (Rhod-2 fluorescence); type: in vivo; conditions: for effect on Ca2+ transients, in words: nanomolar concentrations
# Excerpt: Ca^2+i transients were monitored in a Langendorff perfused mouse heart using Rhod-2 fluorescence.
# It is believed that the faster and larger Ca^2+ transient is due to an increase in Ca^2+ load in the lumen of the SR caused by a reduced Ca^2+ “leak” from the SR.
# [6] = molecular target: RyR1 (Oryctolagus cuniculus, UniProt P11716); test: Thiol content of isolated RyR1 by CPM fluorescence; type: biochemical; conditions: 10 mM tetracaine; control ~47 thiols per monomeric receptor
# Sequence of RyR1 (P11716 whole entry): as the sequence (P11716 whole entry) above
# [7] = molecular target: reactive thiols on the RyR/CRC (Oryctolagus cuniculus, UniProt P11716); test: Redox potential of reactive thiols on RyR from rate of ryanodine binding vs solution redox potential; type: biochemical; conditions: tetracaine 25 μM; control (20 μM Ca2+) −160.3±3.2 mV
# [8] = Electron donor activity: initial rate of XTT reduction; type: physicochemical; conditions: initial rate of XTT reduction fit to Michaelis-Menton equation; read-out: Kd, concentration at which half maximal electron donor activity is observed
# Procedure: as §3
# as §4, with “In both cases, a probe can be added (e.g., NBD-Cl or XTT) to react with superoxide and produce a detectable product.” left out, “compound. […]” for “compound.”
# [9] = tested on: Langendorff perfused rabbit hearts; test: Dofetilide-induced arrhythmia (LQT2, EADs/TdP) in Langendorff perfused rabbit hearts; type: in vivo
# Procedure: as §1, §2
# [10] = tested on: ventricular myocytes; conditions: independent of the presence of FKBP12.6; Hunt et al. 2007; cited from earlier work
# [11] = skeletal muscle CRC, four parameter logistic curve fit, FIG. 2, read-out: IC50, concentration required to half maximally inhibit single channel activity
compound,measurement,setting,value
"COc1ccc2c(c1)CN(C(=O)CCN1CCC(Cc3ccc4c(c3)OCO4)CC1)CCS2 [[1,3]dioxole derivative, 3-(4-(benzo[d][1,3]dioxol-5-ylmethyl)piperidin-1-yl)-1-(7-methoxy-2,3-dihydrobenzo[f][1,4]thiazepin-4(5H)-yl)propan-1-one]",action potential shape,[1]; 1.0 μM,the normal AP shape was restored
same,elimination of EADs and delayed afterdepolarizations (DADs),[1]; 1.0 μM,eliminated both EADs and delayed afterdepolarizations (DADs)
same,reversal of arrhythmias induced by dofetilide,"[1]; 1 μM, FIG. 12",can reverse arrhythmias induced by dofetilide
"COc1ccc(O)cc1C [4-MmC, 4-methoxy-3-methylphenol]",decrease of open probability (Po) at sub-micromolar concentrations,[2],significantly decreased the open probability (Po)
same,open probability Po,"[3]; +10 μM 4-MmC after 6 mM caffeine (Po=0.071), 50 μM Ca2+, FIG. 3C",0.015
same,Ki,"[3]; skeletal muscle CRC, FIG. 5, unit inferred, read-out: Ki for inhibition of single channel activity",~0.5 µM
same,"effect on open probability (Po), in words","[3]; sub-micromolar concentrations, FIG. 5",significantly decreased
same,Kd,[4]; listed as 4-methoxy-3-methyl phenol,13 µM
same,Kd,[4],~13 µM
COc1ccc2c(c1)CN(C(=O)CCN1CCC(Cc3ccccc3)CC1)CCS2 [K201],concentration at which amplitude of Ca2+ transients was adversely affected,"[5]; mouse, in vivo",10 to 25 µM
same,"effect on Ca2+ transients, in words",[5],enhance Ca^2+ transients
same,"effect on channel activity in the absence of FKBP12, in words",[3]; 10 μM K201 after 20 μM FK506,still inhibited channel activity
same,open probability Po,"[3]; +5 μM K201, 20 μM Ca2+, control Po=0.107, FIG. 8B",0.060
same,open probability Po,"[3]; +10 μM K201, 20 μM Ca2+, control Po=0.107, FIG. 8C",0.047
same,open probability Po,"[3]; +10 μM K201 on FK506-treated (20 μM) channel, Po=0.106 before, FIG. 9C",0.009
same,IC50,"[3]; IC50 for K201 inhibition of RyR1, FIG. 2, as restated in Example 4, unit inferred",~4 µM
same,IC50,[3]; [11],3.98 ± 0.79 µM
CCCCNc1ccc(C(=O)OCCN(C)C)cc1 [tetracaine],number of thiols reacting with CPM,[6],~70 per monomer
same,redox potential of the reactive thiols,[7],−147.7±2.8 mV
FKBP12: FK506 binding protein (calstabin1) that binds RyR1; endogenous electron donor,Kd,[8],~12.4 µM
"CN(CCOc1ccc(NS(C)(=O)=O)cc1)CCc1ccc(NS(C)(=O)=O)cc1 [Dofetilide, dofetilide, reference compound]",time to elicit EADs,[9]; dofetilide 0.5 μM,5 min
same,"pro-arrhythmic effect, in words","[9]; dofetilide 0.5 μM, panel B, ten minutes",promotes TdP
"COc1ccc2c(c1)CN(C(=O)CCN1CCC(Cc3ccc4c(c3)OCO4)CC1)CCS2 [[1,3]dioxole derivative of K201, 3-(4-(benzo[d][1,3]dioxol-5-ylmethyl)piperidin-1-yl)-1-(7-methoxy-2,3-dihydrobenzo[f][1,4]thiazepin-4(5H)-yl)propan-1-one]","effect on amount of SR Ca2+ release compared to controls, in words",[5]; high concentrations,did not reduce the amount of SR Ca^2+ release
same,concentration causing enhancement of fractional change in Rhod-2 fluorescence (Ca2+ transient),[5]; lowest concentration stated (as low as),10 nM
same,"effect on Ca2+ transients, in words",[5],enhance Ca^2+ transients
same,"effect on arrhythmias induced by dofetilide, in words","[9]; 1 μM test compound, dofetilide 0.5 μM",reverse arrhythmias
same,"effect on EADs and AP shape, in words","[9]; 1.0 μM, dofetilide 0.5 μM, adult female rabbit hearts paced at 1.2 second intervals",all EADs were suppressed
same,duration of protective effects,[9]; continuous perfusion with dofetilide and test compound,20 min
same,IC50,[3]; [11],0.24 ± 0.05 µM
same,potency of inhibition of single channel activity relative to K201,"[3]; skeletal muscle CRC, ratio of IC50 values",about 16 times
"COc1ccc2c(c1)CN(C(=O)CCN1CCC(Cc3ccccc3)CC1)CCS2 [K201, reference compound]",spontaneous Ca2+ release,[10],suppresses spontaneous Ca^2+ release in ventricular myocytes
same,Kd,[4],28 µM
